Measured values from ChEMBL document CHEMBL3885861, “Open TG-GATES”.
Several values for one entry are separate records, joined by “and”; a condition that tells them apart may be missing. Identical values can stand only once.

Organism: Rattus norvegicus
Experiment: Open TG-GATES - Regimen: Single
Assay type: toxicity, organism-based, Sprague-Dawley
Parameters: regimen Single, gender Male, age 6 weeks
Conditions: in vivo, po, 0 mg/kg, route gavage, dose level Control; for APTT / Bas / Eos / Fbg / Hb / Ht / Lym / MCH / MCHC / MCV / Mono / Neu / PT / Plat / RBC / Ret / WBC: tissue Blood; for KIDNEY_L / KIDNEY_R / KIDNEY_TOTAL: tissue Kidney; for LIVER: tissue Liver; for ALP / ALT / AST / BUN / CRE / Ca / Cl / GLC / IP / K / LDH / Na / PL / RALB / TBIL / TC / TP / gamma-GTP: tissue Plasma

## O=P1(N(CCCl)CCCl)NCCCO1 (stereo not given) [CYCLOPHOSPHAMIDE ANHYDROUS]
3 h
  TERMINAL_BW: 187.8 g and 193 g
  APTT: 22.9 s and 16.1 s
  Bas: 0% and 0.2%
  Eos: 1% and 0.6%
  Fbg: 287.4 mg/dL and 271.4 mg/dL
  Hb: 13.1 g/dL and 13.4 g/dL
  Ht: 39.1% and 39.6%
  Lym: 84% and 75.6%
  MCH: 21.3 pg and 21 pg
  MCHC: 33.5% and 33.7%
  MCV: 63.6 fL and 62.4 fL
  Mono: 1.6% and 3.2%
  Neu: 12.8% and 20.2%
  PT: 15.9 s and 13.8 s
  Plat: 124.4 x10_4/uL and 125.2 x10_4/uL
  RBC: 614.8 x10_4/ul and 636 x10_4/ul
  Ret: 8.6% and 9.1%
  WBC: 75.9 x10_2/uL and 115.3 x10_2/uL
  KIDNEY_L: 0.9 g
  KIDNEY_R: 0.8 g
  KIDNEY_TOTAL: 1.7 g
  LIVER: 8.5 g and 8.2 g
  ALP: 1691.4 IU/L and 1383.8 IU/L
  ALT: 46.4 IU/L and 37.2 IU/L
  AST: 77.8 IU/L and 73.8 IU/L
  BUN: 13.4 mg/dL and 10 mg/dL
  CRE: 0.2 mg/dL
  Ca: 10.6 mg/dL and 11 mg/dL
  Cl: 106.8 meq/L and 105.2 meq/L
  GLC: 188.8 mg/dL and 175.4 mg/dL
  IP: 8.2 mg/dL and 8.4 mg/dL
  K: 3.8 meq/L and 4.6 meq/L
  LDH: 185 IU/L and 66 IU/L
  Na: 144.2 meq/L and 140.4 meq/L
  PL: 135.6 mg/dL and 140.8 mg/dL
  RALB: 2.9 g/dL and 2.4 g/dL
  TBIL: 0.026 mg/dL and 0.066 mg/dL
  TC: 78.4 mg/dL and 78 mg/dL
  TP: 5.4 g/dL and 5.2 g/dL
  gamma-GTP: 1 IU/L and 1.2 IU/L
6 h
  TERMINAL_BW: 190.8 g and 192 g
  APTT: 21.9 s and 18.3 s
  Bas: 0%
  Eos: 0.6% and 1%
  Fbg: 286 mg/dL and 280.6 mg/dL
  Hb: 13.3 g/dL and 12.8 g/dL
  Ht: 39.8% and 38.3%
  Lym: 78.6% and 76.6%
  MCH: 21.1 pg and 20.7 pg
  MCHC: 33.5%
  MCV: 63.1 fL and 61.8 fL
  Mono: 2%
  Neu: 17.8% and 20.2%
  PT: 16.4 s and 14 s
  Plat: 122.5 x10_4/uL and 115 x10_4/uL
  RBC: 630.6 x10_4/ul and 620.2 x10_4/ul
  Ret: 8.1% and 8.5%
  WBC: 102.3 x10_2/uL and 90.1 x10_2/uL
  KIDNEY_L: 0.9 g and 0.8 g
  KIDNEY_R: 0.9 g and 0.8 g
  KIDNEY_TOTAL: 1.7 g
  LIVER: 8.1 g
  ALP: 1329.6 IU/L and 1641.8 IU/L
  ALT: 38.8 IU/L and 34.4 IU/L
  AST: 66.8 IU/L and 71.4 IU/L
  BUN: 10.8 mg/dL and 10 mg/dL
  CRE: 0.1 mg/dL and 0.2 mg/dL
  Ca: 10.6 mg/dL and 11 mg/dL
  Cl: 106 meq/L and 106.2 meq/L
  GLC: 185.2 mg/dL and 174.8 mg/dL
  IP: 8.9 mg/dL and 9 mg/dL
  K: 4.2 meq/L and 4.3 meq/L
  LDH: 166.8 IU/L and 60.6 IU/L
  Na: 143.4 meq/L and 142.4 meq/L
  PL: 134.2 mg/dL and 136.8 mg/dL
  RALB: 2.8 g/dL and 2.5 g/dL
  TBIL: 0.032 mg/dL and 0.068 mg/dL
  TC: 75.8 mg/dL and 74.2 mg/dL
  TP: 5.4 g/dL and 5.3 g/dL
  gamma-GTP: 1 IU/L
9 h
  TERMINAL_BW: 186.5 g and 187.9 g
  APTT: 20.3 s and 17.4 s
  Bas: 0%
  Eos: 0.6% and 1%
  Fbg: 300.4 mg/dL and 291.4 mg/dL
  Hb: 13 g/dL and 12.7 g/dL
  Ht: 38.9% and 38.1%
  Lym: 80.8% and 75.6%
  MCH: 21.1 pg and 20.6 pg
  MCHC: 33.5% and 33.3%
  MCV: 62.9 fL and 61.8 fL
  Mono: 1.8%
  Neu: 16.4% and 20.8%
  PT: 16.6 s and 13.9 s
  Plat: 120.1 x10_4/uL and 120.7 x10_4/uL
  RBC: 619.4 x10_4/ul and 616.6 x10_4/ul
  Ret: 7.8% and 8.3%
  WBC: 78.2 x10_2/uL and 80.1 x10_2/uL
  KIDNEY_L: 0.9 g and 0.8 g
  KIDNEY_R: 0.9 g and 0.8 g
  KIDNEY_TOTAL: 1.8 g and 1.6 g
  LIVER: 7.7 g and 7.1 g
  ALP: 1482.2 IU/L and 1393 IU/L
  ALT: 37.6 IU/L and 35 IU/L
  AST: 69 IU/L and 73.8 IU/L
  BUN: 10.4 mg/dL and 7.4 mg/dL
  CRE: 0.1 mg/dL and 0.2 mg/dL
  Ca: 10.4 mg/dL and 10.7 mg/dL
  Cl: 106 meq/L and 106.4 meq/L
  GLC: 178.6 mg/dL and 161 mg/dL
  IP: 9.7 mg/dL and 9.3 mg/dL
  K: 3.8 meq/L and 4.2 meq/L
  Na: 143 meq/L and 141.8 meq/L
  PL: 126.6 mg/dL and 131.6 mg/dL
  RALB: 3 g/dL and 2.5 g/dL
  TBIL: 0.034 mg/dL and 0.072 mg/dL
  TC: 72.6 mg/dL and 78 mg/dL
  TP: 5.4 g/dL and 5.3 g/dL
  gamma-GTP: 1 IU/L and 1.6 IU/L
24 h
  TERMINAL_BW: 205 g and 201 g
  APTT: 21 s and 17.8 s
  Bas: 0%
  Eos: 0.6% and 1.2%
  Fbg: 300.2 mg/dL and 289 mg/dL
  Hb: 13.1 g/dL and 13.5 g/dL
  Ht: 39.3% and 40.6%
  Lym: 81.8% and 74.6%
  MCH: 21.4 pg and 20.6 pg
  MCHC: 33.3% and 33.4%
  MCV: 64.2 fL and 61.7 fL
  Mono: 2.2% and 3%
  Neu: 15.2% and 21%
  PT: 16.5 s and 14 s
  Plat: 120.5 x10_4/uL and 107.8 x10_4/uL
  RBC: 612.4 x10_4/ul and 658.4 x10_4/ul
  Ret: 7.8% and 7.5%
  WBC: 90.3 x10_2/uL and 86.9 x10_2/uL
  KIDNEY_L: 0.9 g
  KIDNEY_R: 0.9 g and 0.8 g
  KIDNEY_TOTAL: 1.9 g and 1.7 g
